Data on seven molecules can be found in patent US20160272935A1, “Method of improving the yield of algae production” (RELIANCE INDUSTRIES LIMITED, priority 2013, published 2016).

For assay [1], the system named is diatoms. Briefly: Mixed algae/diatom culture with urea cycle pathway inhibitor, cellometer cell count: diatoms. In kind it is cell-based. Conditions: 1 mM inhibitor. As to the method: (§1) A control was established containing equal quantities of algae and diatoms. Similarly a test was also established containing the same equal quantities of algae and diatoms along with 1 mM of urea cycle pathway inhibitor namely, Saccharopine.
(§2) At Day 1 using a cellometer technique the cell counts of algae and diatoms in both the control and the test was carried out.
(§3) Both the control and the test were then incubated for 4 days in similar optimum conditions with periodic checking for cell counts in both the control and the test vessels.
(§4) The diatom and the algal cell count was then determined using the cellometer technique at the end of 4th day.

The test system of assay [2] is algae. Briefly: Mixed algae/diatom culture with urea cycle pathway inhibitor, cellometer cell count: algae. Format: cell-based. The following applies: 1 mM inhibitor. As to the method:
as §1, §2, §3, §4

The test system of a further assay is diatoms and algae. Briefly: Similar trials with other urea cycle pathway inhibitors in mixed environment of diatoms and algae. The following applies: no details given.
The test system of assay [3] is algae. Briefly: Pond (natural habitat) trial with urea cycle pathway inhibitor, cellometer cell count: algae. The following applies: 25 mM added to pond, end of 2 month span; day 1 count 1000 cells/meter. As to the method: (§5) Another experiment was carried out in a natural habitat i.e. a pond consisting of a mixed environment of algae and diatoms. At Day 1 using a cellometer technique the cell counts of algae and diatoms was carried out.
(§6) A urea cycle pathway inhibitor, namely Tris 25 mM was added to the pond.
(§7) Periodic cell count readings were carried out for a span of two months. The diatom and the algal cell count were then determined using the cellometer technique at the end of the 2 month span.

For assay [4], the system named is diatoms. The assay is described as follows: Pond (natural habitat) trial with urea cycle pathway inhibitor, cellometer cell count: diatoms. Conditions: 25 mM added to pond. Also noted: species or system diatom. As to the method: as §5, §6, §7

Take `N[C@@H](CCCCN[C@@H](CCC(=O)O)C(=O)O)C(=O)O` [Saccharopine]: the “Day 4 (Cell Count) Inhibitor Diatom” value in the assay on diatoms [1] (after 4 days incubation, control 842, day 1 count 200) is given as 62. Moreover, the “Diatom cell count reduction from day 1” value with diatoms [1] (day 4) came to 69%. The “Day 1 (Cell count) Inhibitor Diatom” value in the assay on diatoms [1] (initial count at day 1) is recorded as 200. Moreover, in the assay with algae [2] (after 4 days incubation, control 119, day 1 count 100), the “Day 4 (Cell Count) Inhibitor Algae” value stood at 450. In the assay with algae [2] (initial count at day 1), the “Day 1 (Cell count) Inhibitor Algae” value was 100. Moreover, the “Outcome of similar trials (diatom inhibition and algal growth)” value with diatoms and algae is listed as “equally successful results”.

For the molecule `O=C([O-])c1ccccc1.[Na+]` [sodium benzoate], in the assay with diatoms and algae, the “Outcome of similar trials (diatom inhibition and algal growth)” value is “equally successful results”.

As to `NC(CO)(CO)CO` [Tris], the “Cell count at Day 60 Algae” value in the assay on algae [3] is 5300 cells/meter. In addition, in the assay on diatoms [4] (2 months), the “Diatom cell count of the pond reduced, as compared to the cell count of diatoms on Day 1” value is recorded as 71%. Also, the “Cell count at Day 60 Diatom” value in the assay with diatoms [4] (end of 2 month span, day 1 count 2000 cells/meter) was 580 cells/meter. In the assay on diatoms and algae, the “Outcome of similar trials (diatom inhibition and algal growth)” value was “equally successful results”.

For `CCCCCCCCCCCCCCCC(=O)SCCNC(=O)CCNC(=O)[C@H](O)C(C)(C)COP(=O)(O)OP(=O)(O)OC[C@H]1O[C@@H](n2cnc3c(N)ncnc32)[C@H](O)[C@@H]1OP(=O)(O)O` [palmitoyl CoA], the “Outcome of similar trials (diatom inhibition and algal growth)” value in the assay with diatoms and algae was “equally successful results”.

`N` [ammonia]: the “Outcome of similar trials (diatom inhibition and algal growth)” value in the assay on diatoms and algae is “equally successful results”.

For `O=S(=O)(O)CCN1CCN(CCO)CC1` [hepes], in the assay on diatoms and algae, the “Outcome of similar trials (diatom inhibition and algal growth)” value is “equally successful results”.

With `NCCCC[C@H](N)C(=O)O` [lysine], in the assay on diatoms and algae, the “Outcome of similar trials (diatom inhibition and algal growth)” value is “equally successful results”.
